# According to US10570129B2 (Zoetis Services LLC, priority 2015, dated 2020):
# What was measured:
# D. immitis microfilariae = assay: Dirofilaria immitis, microfilariae (DiMF) in vitro motility assay; assay type: cell-based; conditions: Dirofilaria immitis, 72 h, read-out: DiMF minimally effective dose (MEC)
# Haemonchus contortus L3 = assay: microbe, parasite or virus in culture; assay type: cell-based; conditions: Haemonchus contortus, 96 h, read-out: HcL3 Minimal Effective Concentration (MEC)
SMILES,minimal effective concentration (D. immitis microfilariae) [µM],minimal effective concentration (Haemonchus contortus L3) [µM]
"O=C(NCc1ccnc(Cl)c1)n1c2c(c3cc(Br)ccc31)CN(C/C=C/c1ccc(Cl)c(Cl)c1)CC2 [Example 186, (E)-8-bromo-N-((2-chloropyridin-4-yl)methyl)-2-(3-(3,4-dichlorophenyl)allyl)-1,2,3,4-tetrahydro-5H-pyrido[4,3-b]indole-5-carboxamide]",> 100,1
"O=C(NCc1ccnc(Cl)c1)n1c2c(c3cc(Br)ccc31)CN(C/C=C/c1ccc(OC(F)(F)F)cc1)CC2 [Example 187, (E)-8-bromo-N-((2-chloropyridin-4-yl)methyl)-2-(3-(4-(trifluoromethoxy)phenyl)allyl)-1,2,3,4-tetrahydro-5H-pyrido[4,3-b]indole-5-carboxamide]",> 100,1.3
"O=C(NCc1ccnc(F)c1)n1c2c(c3cc(Br)ccc31)CN(C/C=C/c1ccc(Cl)c(F)c1)CC2 [Example 188, (E)-8-bromo-2-(3-(4-chloro-3-fluorophenyl)allyl)-N-((2-fluoropyridin-4-yl)methyl)-1,2,3,4-tetrahydro-5H-pyrido[4,3-b]indole-5-carboxamide]",3.3,0.3
"N#Cc1ccc(/C=C/CN2CCc3c(c4cc(Br)ccc4n3C(=O)NCc3ccnc(F)c3)C2)cc1F [Example 189, (E)-8-bromo-2-(3-(4-cyano-3-fluorophenyl)allyl)-N-((2-fluoropyridin-4-yl)methyl)-1,2,3,4-tetrahydro-5H-pyrido[4,3-b]indole-5-carboxamide]",10.4,0.3
"O=C(NCc1ccnc(F)c1)n1c2c(c3cc(Br)ccc31)CN(C/C=C/c1ccc(F)c(Cl)c1)CC2 [Example 190, (E)-8-bromo-2-(3-(3-chloro-4-fluorophenyl)allyl)-N-((2-fluoropyridin-4-yl)methyl)-1,2,3,4-tetrahydro-5H-pyrido[4,3-b]indole-5-carboxamide]",5.7,1
"O=C(NCc1ccnc(F)c1)n1c2c(c3cc(Br)ccc31)CN(C/C=C/c1ccc(F)c(F)c1)CC2 [Example 191, (E)-8-bromo-2-(3-(3,4-difluorophenyl)allyl)-N-((2-fluoropyridin-4-yl)methyl)-1,2,3,4-tetrahydro-5H-pyrido[4,3-b]indole-5-carboxamide]",10,0.3
"O=C(NCc1ccnc(F)c1)n1c2c(c3cc(Br)ccc31)CN(C/C=C/c1ccc(Cl)cc1)CC2 [Example 192, (E)-8-bromo-2-(3-(4-chlorophenyl)allyl)-N-((2-fluoropyridin-4-yl)methyl)-1,2,3,4-tetrahydro-5H-pyrido[4,3-b]indole-5-carboxamide]",11.5,0.7
"O=C(NCc1cnc(Cl)s1)n1c2c(c3cc(Br)ccc31)CN(C/C=C/c1ccc(Cl)cc1)CC2 [Example 193, (E)-8-bromo-2-(3-(4-chlorophenyl)allyl)-N-((2-chlorothiazol-5-yl)methyl)-1,2,3,4-tetrahydro-5H-pyrido[4,3-b]indole-5-carboxamide]",75.8,1
"Cc1cc2c(cc1Br)c1c(n2C(=O)NCc2ccnc(Cl)c2)CCN(C/C=C/c2ccc(Cl)cc2)C1 [Example 194, (E)-8-bromo-2-(3-(4-chlorophenyl)allyl)-N-((2-chloropyridin-4-yl)methyl)-7-methyl-1,2,3,4-tetrahydro-5H-pyrido[4,3-b]indole-5-carboxamide]",5.7,0.4
"COc1cc2c(cc1Br)c1c(n2C(=O)NCc2ccnc(Cl)c2)CCN(C/C=C/c2ccc(Cl)cc2)C1 [Example 195, (E)-8-bromo-2-(3-(4-chlorophenyl)allyl)-N-((2-chloropyridin-4-yl)methyl)-7-methoxy-1,2,3,4-tetrahydro-5H-pyrido[4,3-b]indole-5-carboxamide]",5.7,0.5
"O=C(NCc1ccnc(Cl)c1)n1c2c(c3cc(Br)c(Cl)cc31)CN(C/C=C/c1ccc(Cl)cc1)CC2 [Example 196, (E)-8-bromo-7-chloro-2-(3-(4-chlorophenyl)allyl)-N-((2-chloropyridin-4-yl)methyl)-1,2,3,4-tetrahydro-5H-pyrido[4,3-b]indole-5-carboxamide]",5.7,0.3
"O=C(NCc1ccnc(Cl)c1)n1c2c(c3cc(Br)c(F)cc31)CN(C/C=C/c1ccc(Cl)cc1)CC2 [Example 197, (E)-8-bromo-2-(3-(4-chlorophenyl)allyl)-N-((2-chloropyridin-4-yl)methyl)-7-fluoro-1,2,3,4-tetrahydro-5H-pyrido[4,3-b]indole-5-carboxamide]",4.4,0.4
"O=C(NCc1ccnc(Cl)c1)n1c2c(c3cc(Br)c(Br)cc31)CN(C/C=C/c1ccc(Cl)cc1)CC2 [Example 198, (E)-7,8-dibromo-2-(3-(4-chlorophenyl)allyl)-N-((2-chloropyridin-4-yl)methyl)-1,2,3,4-tetrahydro-5H-pyrido[4,3-b]indole-5-carboxamide]",5.7,1
"O=C(NCc1ccnc(Cl)c1)n1c2c(c3ccc(Br)cc31)CN(C/C=C/c1ccc(F)cc1F)CC2 [Example 199, (E)-7-bromo-N-((2-chloropyridin-4-yl)methyl)-2-(3-(2,4-difluorophenyl)allyl)-1,2,3,4-tetrahydro-5H-pyrido[4,3-b]indole-5-carboxamide]",24.5,5.7
"O=C(NCc1ccnc(Cl)c1)n1c2c(c3ccc(Cl)cc31)CN(C/C=C/c1ccc(Cl)c(F)c1)CC2 [Example 205, (E)-7-chloro-2-(3-(4-chloro-3-fluorophenyl)allyl)-N-((2-chloropyridin-4-yl)methyl)-1,2,3,4-tetrahydro-5H-pyrido[4,3-b]indole-5-carboxamide]",18.2,1
"O=C(NCc1ccnc(Cl)c1)n1c2c(c3ccc(Cl)cc31)CN(C/C=C/c1ccc(C(F)(F)F)cn1)CC2 [Example 206, (E)-7-chloro-N-((2-chloropyridin-4-yl)methyl)-2-(3-(5-(trifluoromethyl)-pyridin-2-yl)allyl)-1,2,3,4-tetrahydro-5H-pyrido[4,3-b]indole-5-carboxamide]",3.3,0.2
"O=C(NCc1ccnc(Cl)c1)n1c2c(c3c(Cl)cccc31)CN(C/C=C/c1ccc(C(F)(F)F)cn1)CC2 [Example 207, (E)-9-chloro-N-((2-chloropyridin-4-yl)methyl)-2-(3-(5-(trifluoromethyl)-pyridin-2-yl)allyl)-1,2,3,4-tetrahydro-5H-pyrido[4,3-b]indole-5-carboxamide]",10,0.3
"N#Cc1ccc(/C=C/CN2CCc3c(c4ccc(Cl)cc4n3C(=O)NCc3ccnc(Cl)c3)C2)cc1F [Example 208, (E)-7-chloro-N-((2-chloropyridin-4-yl)methyl)-2-(3-(4-cyano-3-fluorophenyl)allyl)-1,2,3,4-tetrahydro-5H-pyrido[4,3-b]indole-5-carboxamide]",> 100,1.8
"O=C(NCc1ccnc(Cl)c1)n1c2c(c3ccc(Cl)cc31)CN(C/C=C/c1ccc(F)cc1F)CC2 [Example 209, (E)-7-chloro-N-((2-chloropyridin-4-yl)methyl)-2-(3-(2,4-difluorophenyl)-allyl)-1,2,3,4-tetrahydro-5H-pyrido[4,3-b]indole-5-carboxamide]",33,> 100
"O=C(NCc1ccnc(Cl)c1)n1c2c(c3ccc(Cl)cc31)CN(C/C=C/c1ccc(F)c(Cl)c1)CC2 [Example 210, (E)-7-chloro-2-(3-(3-chloro-4-fluorophenyl)allyl)-N-((2-chloropyridin-4-yl)methyl)-1,2,3,4-tetrahydro-5H-pyrido[4,3-b]indole-5-carboxamide]",10,3.3
"N#Cc1ccc(/C=C/CN2CCc3c(c4ccc(Cl)cc4n3C(=O)NCc3ccnc(Cl)c3)C2)cc1 [Example 212, (E)-7-chloro-N-((2-chloropyridin-4-yl)methyl)-2-(3-(4-cyanophenyl)allyl)-1,2,3,4-tetrahydro-5H-pyrido[4,3-b]indole-5-carboxamide]",> 100,1
"O=C(NCc1ccnc(Cl)c1)n1c2c(c3ccc(Cl)cc31)CN(C/C=C/c1ccc(Cl)cc1)CC2 [Example 213, (E)-7-chloro-2-(3-(4-chlorophenyl)allyl)-N-((2-chloropyridin-4-yl)methyl)-1,2,3,4-tetrahydro-5H-pyrido[4,3-b]indole-5-carboxamide]",3.3,0.3
"O=C(NCc1ccnc(Cl)c1)n1c2c(c3c(Cl)cccc31)CN(C/C=C/c1ccc(Cl)cc1)CC2 [Example 214, (E)-9-chloro-2-(3-(4-chlorophenyl)allyl)-N-((2-chloropyridin-4-yl)methyl)-1,2,3,4-tetrahydro-5H-pyrido[4,3-b]indole-5-carboxamide]",18.2,0.5
"O=C(NCc1ccnc(Cl)c1)n1c2c(c3ccc(Cl)cc31)CN(C/C=C/c1ccc(Cl)c(Cl)c1)CC2 [Example 215, (E)-7-chloro-N-((2-chloropyridin-4-yl)methyl)-2-(3-(3,4-dichlorophenyl)allyl)-1,2,3,4-tetrahydro-5H-pyrido[4,3-b]indole-5-carboxamide]",10,0.5
"O=C(NCc1ccnc(Cl)c1)n1c2c(c3c(Cl)cccc31)CN(C/C=C/c1ccc(Cl)c(Cl)c1)CC2 [Example 216, (E)-9-chloro-N-((2-chloropyridin-4-yl)methyl)-2-(3-(3,4-dichlorophenyl)allyl)-1,2,3,4-tetrahydro-5H-pyrido[4,3-b]indole-5-carboxamide]",18.2,1
